According to US7018807B2, “Method and medium for detecting vancomycin-resistant enterococcus” (priority 1996, dated 2006):

Assays:
Assay in all cases: MIC for vancomycin
Assay type in all cases: cell-based
[1] = system: Enterococcus faecium VRE05; details: strain VRE05, read-out: MIC (minimum inhibitory concentration for vancomycin)
[2] = system: Enterococcus faecium VRE02; details: VRE02, read-out: MIC (minimum inhibitory concentration for vancomycin)
[3] = system: Enterococcus faecium VRE03; details: strain VRE03, read-out: MIC (minimum inhibitory concentration for vancomycin)
[4] = system: Enterococcus faecium VRE07; details: strain VRE07, read-out: MIC (minimum inhibitory concentration for vancomycin)
[5] = system: Enterococcus faecium VRE06; details: strain VRE06, read-out: MIC (minimum inhibitory concentration for vancomycin)
[6] = system: Enterococcus faecium VRE04; details: strain VRE04, read-out: MIC (minimum inhibitory concentration for vancomycin)

Measured: MIC

CN[C@H](CC(C)C)C(=O)N[C@H]1C(=O)N[C@@H](CC(N)=O)C(=O)N[C@H]2C(=O)N[C@H]3C(=O)N[C@H](C(=O)N[C@H](C(=O)O)c4cc(O)cc(O)c4-c4cc3ccc4O)[C@H](O)c3ccc(c(Cl)c3)Oc3cc2cc(c3O[C@@H]2O[C@H](CO)[C@@H](O)[C@H](O)[C@H]2O[C@H]2C[C@](C)(N)[C@H](O)[C@H](C)O2)Oc2ccc(cc2Cl)[C@H]1O [vancomycin]
> 256 µg/mL: all assays above
